Measured values published in US20210002725A1, “METHODS FOR THE DIAGNOSIS OF METABOLIC DISORDERS USING EPIMETABOLIC SHIFTERS, MULTIDIMENSIONAL INTRACELLULAR MOLECULES, OR ENVIRONMENTAL INFLUENCES” (Berg LLC, priority 2009, published 2021).
Where two headings read alike, the source gives them in different places.

Assays:
HepG2 cells = experiment: Nexin assay for early and late apoptosis (flow cytometry); assay type: cell-based; conditions: 50 μM Q10, 24 hours
Source text: (§1) The 7AAD dye will enter into cells with permeabilized cell membranes; primarily those cells that are in late apoptosis. Annexin-V-PE is a dye that binds to Phosphotidyl serine, which is exposed on the outer surface of the plasma membrane in early apoptotic cells. The Nexin reagent thus can be used to differentiate between different populations of apoptotic cells in a flow cytometer.

MCF-7 cells = experiment: as above; assay type: cell-based; conditions: 50 μM and 100 μM Q10, 24 hours
Source text: as §1

PaCa2 cells = experiment: as above; assay type: cell-based; conditions: 50 μM and 100 μM Q10, 24 hours
Source text: as §1

SCC cells = experiment: Real-time PCR Diabetes Array; assay type: cell-based; conditions: 100 μM
Source text: The control cells were untreated cells.

[1] = system: HepG2 (liver cancer) cells; experiment: Real-time PCR Angiogenesis Array; assay type: cell-based
Method: The treatment was initiated on 1×10^5 cells per well, following the procedure utilized in the PaCa2 cells (above Examples 9-11). However, the total amount of RNA that was extracted from these samples was lower than expected. Reverse transcription is normally done using 1 μg of total RNA (determined by measurement at 260 nm).

HDFa cells = experiment: SeaHorse XF analyzer OCR and ECAR; assay type: cell-based, human; conditions: normoxic and hypoxic conditions, 5.5 mM and 22 mM glucose
Source text: Environmental influencers (e.g., MIMs or Epi-shifters) may also be identified by changes in cellular energetics. One example of the measurement of cellular energetics are the real-time measures of the consumption of molecular oxygen and/or the change in pH of the media of a cell culture. For example, the ability of a potential epi-shifter to modulate the metabolic state of a cell may be analyzed using, for example, the XF24 Analyzer (Seahorse, Inc.). This technology allows for real time detection of oxygen and pH changes in a monolayer of cells in order to evaluate the bioenergetics of a cell microenvironment. The XF24 Analyzer measures and compares the rates of oxygen consumption (OCR), which is a measure of aerobic metabolism, and extracellular acidification (ECAR), which is a measure of glycolysis, both key indicators of cellular energetics.
(SeaHorse Biosciences Inc, North Billerica, Mass.).
In this experiment, the OCR and extracellular acidification rate (ECAR) in normal cells lines were obtained in the presence and absence of CoQ10 to determine baseline values. It was observed that in its native nutrient environment, the basal OCR rates in normal cells lines are different, and are usually a function of the physiological roles of the cells in the body.
For example, one set of experiments were conducted using the non-cancerous cell line HDFa, which is a human adult dermal fibroblast cell line. Fibroblasts are cells that primarily synthesize and secrete extracellular matrix (ECM) components and collagen that form the structural framework (stroma) for tissues. In addition, fibroblasts are known to serve as tissue ambassadors of numerous functions such as wound healing and localized immnomodulation. Under normal physiological conditions, energy requirements in normal fibroblasts are met using a combination of glycolysis and oxidative phosphorylation—the glycolysis providing the necessary nutrients for synthesis of ECM.
FIGS. 29 and 30 describe the OCR in HDFa and HASMC cells grown in physiologically normal glucose (about 4.6 mM) and high glucose (hyperglycemic) conditions.

[2] = cited from earlier work

With COC1=C(OC)C(=O)C(C/C=C(\C)CC/C=C(\C)CC/C=C(\C)CC/C=C(\C)CC/C=C(\C)CC/C=C(\C)CC/C=C(\C)CC/C=C(\C)CC/C=C(\C)CCC=C(C)C)=C(C)C1=O [Q10, Coenzyme Q10] the “increase of gated population in late apoptotic and early apoptotic stages” value (HepG2 cells) was “about 20%”, the apoptotic population (MCF-7 cells) was “increase only in early apoptotic population” and the “increase in early and late apoptotic cells” value (PaCa2 cells) was 5-10 % of gated cells. For the same molecule, the “TNFRSF1A gene Regulation” value (SCC cells; at 6 and 24 hours) was “Down regulated at 6 and 24”, the “G6PD gene Regulation” value (SCC cells; at 6 hours) was “Down regulated at 6 hours” and the “ICAM1 gene Regulation” value (SCC cells; at 6 hours) was “Down regulated at 6 hours”. The “INPPL1 gene Regulation” value (SCC cells; at 6 hours) was “Down regulated at 6 hours”, the “NOS3 gene Regulation” value (SCC cells; at 6 hours) was “Down regulated at 6 hours” and the “PIK3CD gene Regulation” value (SCC cells; at 6 hours) was “Down regulated at 6 hours”. The “PPARA gene Regulation” value (SCC cells; at 6 hours) was “Down regulated at 6 hours”, the “PYGL gene Regulation” value (SCC cells; at 6 hours) was “Down regulated at 6 hours” and the “SREBF1 gene Regulation” value (SCC cells; at 6 hours) was “Down regulated at 6 hours”. For the same molecule, the “STXBP2 gene Regulation” value (SCC cells; at 6 hours) was “Down regulated at 6 hours”, the “TNF gene Regulation” value (SCC cells; at 6 hours) was “Down regulated at 6 hours” and the “VEGFA gene Regulation” value (SCC cells; at 6 hours) was “Down regulated at 6 hours”. For the same molecule, the “ANGPTL3 upregulation over control” value ([1]; 100 μM Q10, 16 hours) was “approximately 5.5 fold”, the “ANGPTL4 upregulation over control” value ([1]; 100 μM Q10, 16 hours) was roughly 3 fold and the “CXCL1 upregulation over control” value ([1]; 100 μM Q10, 16 hours) was roughly 3 fold. For the same molecule, the “CXCL3 upregulation over control” value ([1]; 100 μM Q10, 16 hours) was roughly 3.2 fold, the “CXCL5 upregulation over control” value ([1]; 100 μM Q10, 16 hours) was roughly 3 fold and the “ENG upregulation over control” value ([1]; 100 μM Q10, 16 hours) was roughly 3 fold. The “ID3 downregulation over control” value ([1]; 100 μM Q10, 16 hours) was “approximately 5 fold”, the “MMP2 upregulation over control” value ([1]; 100 μM Q10, 16 hours) was “approximately 1 fold” and the “TIMP3 upregulation over control” value ([1]; 100 μM Q10, 16 hours) was roughly 6.5 fold. The “ANGPTL3 upregulation over control” value ([1]; 100 μM Q10, 48 hours) was “approximately 3.5 fold”, the “ANGPTL4 downregulation over control” value ([1]; 100 μM Q10, 48 hours) was “approximately 1 fold” and the “CXCL1 upregulation over control” value ([1]; 100 μM Q10, 48 hours) was roughly 1.5 fold. For the same molecule, the “CXCL3 upregulation over control” value ([1]; 100 μM Q10, 48 hours) was roughly 3.175 fold, the “CXCL5 downregulation over control” value ([1]; 100 μM Q10, 48 hours) was “approximately 1 fold” and the “ENG upregulation over control” value ([1]; 100 μM Q10, 48 hours) was roughly 2 fold. The “ID3 downregulation over control” value ([1]; 100 μM Q10, 48 hours) was roughly 2 fold, the “MMP2 downregulation over control” value ([1]; 100 μM Q10, 48 hours) was roughly 18 fold and the “TIMP3 upregulation over control” value ([1]; 100 μM Q10, 48 hours) was roughly 3 fold. The ECAR values (HDFa cells) was “minimal influence on ECAR values”, the “CoQ10 in the reduced form” value ([2]; blood (plasma), Bhagavan) was roughly 96% and the “CoQ10 in the reduced form” value ([2]; heart) was “about 61%”. The “molecule found in the reduced form (Q10H2)” value ([2]; human plasma, Ruiz-Jimenez 2007) was 90%, the “CoQ10 in the reduced form” value ([2]; intestine) was roughly 95% and the “CoQ10 in the reduced form” value ([2]; kidney) was roughly 75%. For the same molecule, the “CoQ10 in the reduced form” value ([2]; liver) was roughly 95% and the “CoQ10 in the reduced form” value ([2]; muscle) was roughly 65%.
